The text below walks through data of patent US10494332B2, “Protein tyrosine phosphatases or SHP2 inhibitors and uses thereof” (Indiana University Research and Technology Corporation, priority 2015, dated 2019).

Molecules are shown by their SMILES.

Among the targets are LAR (Homo sapiens, UniProt P10586); PTPβ (Homo sapiens, UniProt P23467); PTPγ (Homo sapiens, UniProt P23470).
Common to all, as to test: PTP inhibition assay (pNPP)
Assay type in all cases: biochemical

For the next assay, the target named is T1, LMWPTP (Homo sapiens, UniProt P24666).
T1 sequence (P24666 1-158): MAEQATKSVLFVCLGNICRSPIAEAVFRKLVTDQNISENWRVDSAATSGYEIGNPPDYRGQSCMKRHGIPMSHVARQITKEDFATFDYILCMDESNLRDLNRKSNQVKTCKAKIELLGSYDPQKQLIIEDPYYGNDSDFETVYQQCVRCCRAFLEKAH
Conditions: pNPP at Km, pH 7.0, 25° C.

The target of the next assay is T2, PTP1B (Homo sapiens, UniProt P18031).
T2 sequence (P18031 1-435): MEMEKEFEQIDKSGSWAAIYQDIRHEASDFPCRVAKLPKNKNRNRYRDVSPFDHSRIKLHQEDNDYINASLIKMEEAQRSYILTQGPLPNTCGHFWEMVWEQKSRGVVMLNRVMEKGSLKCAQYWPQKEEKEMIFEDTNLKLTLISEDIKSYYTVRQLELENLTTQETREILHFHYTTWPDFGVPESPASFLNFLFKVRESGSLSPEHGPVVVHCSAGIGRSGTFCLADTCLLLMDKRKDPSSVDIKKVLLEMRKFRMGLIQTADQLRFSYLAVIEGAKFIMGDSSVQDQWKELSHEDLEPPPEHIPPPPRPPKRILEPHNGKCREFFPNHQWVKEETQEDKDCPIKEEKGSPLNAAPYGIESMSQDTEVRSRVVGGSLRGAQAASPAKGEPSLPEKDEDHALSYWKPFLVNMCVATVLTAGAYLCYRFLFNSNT
The settings on record: pNPP at Km, pH 7.0, 25° C.

In another assay the target is T3, LYP (Homo sapiens, UniProt Q9Y2R2).
T3 sequence (Q9Y2R2 1-807): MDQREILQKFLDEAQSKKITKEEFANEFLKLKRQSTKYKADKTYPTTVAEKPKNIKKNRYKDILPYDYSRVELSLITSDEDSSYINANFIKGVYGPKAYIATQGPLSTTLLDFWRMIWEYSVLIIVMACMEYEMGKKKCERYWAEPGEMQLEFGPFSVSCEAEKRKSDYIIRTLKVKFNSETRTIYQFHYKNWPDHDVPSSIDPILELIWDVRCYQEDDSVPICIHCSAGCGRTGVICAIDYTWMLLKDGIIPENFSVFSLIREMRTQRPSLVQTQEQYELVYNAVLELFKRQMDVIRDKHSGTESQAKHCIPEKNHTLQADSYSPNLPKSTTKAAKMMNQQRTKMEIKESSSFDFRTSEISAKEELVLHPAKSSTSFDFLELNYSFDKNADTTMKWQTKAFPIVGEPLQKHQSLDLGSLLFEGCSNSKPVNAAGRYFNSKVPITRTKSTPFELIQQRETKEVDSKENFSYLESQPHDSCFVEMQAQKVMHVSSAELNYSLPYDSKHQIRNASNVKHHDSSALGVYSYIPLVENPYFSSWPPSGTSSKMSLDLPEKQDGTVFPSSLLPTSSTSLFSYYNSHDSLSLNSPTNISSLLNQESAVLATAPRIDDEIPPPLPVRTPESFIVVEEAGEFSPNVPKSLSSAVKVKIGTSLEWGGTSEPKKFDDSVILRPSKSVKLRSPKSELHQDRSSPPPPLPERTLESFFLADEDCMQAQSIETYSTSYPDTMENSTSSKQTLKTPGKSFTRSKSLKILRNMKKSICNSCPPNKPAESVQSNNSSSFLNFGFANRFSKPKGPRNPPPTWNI
Conditions: pNPP at Km, pH 7.0, 25° C.

The target in the next assay is T4, CD45 (Homo sapiens, UniProt P08575).
T4 sequence (P08575 26-1306): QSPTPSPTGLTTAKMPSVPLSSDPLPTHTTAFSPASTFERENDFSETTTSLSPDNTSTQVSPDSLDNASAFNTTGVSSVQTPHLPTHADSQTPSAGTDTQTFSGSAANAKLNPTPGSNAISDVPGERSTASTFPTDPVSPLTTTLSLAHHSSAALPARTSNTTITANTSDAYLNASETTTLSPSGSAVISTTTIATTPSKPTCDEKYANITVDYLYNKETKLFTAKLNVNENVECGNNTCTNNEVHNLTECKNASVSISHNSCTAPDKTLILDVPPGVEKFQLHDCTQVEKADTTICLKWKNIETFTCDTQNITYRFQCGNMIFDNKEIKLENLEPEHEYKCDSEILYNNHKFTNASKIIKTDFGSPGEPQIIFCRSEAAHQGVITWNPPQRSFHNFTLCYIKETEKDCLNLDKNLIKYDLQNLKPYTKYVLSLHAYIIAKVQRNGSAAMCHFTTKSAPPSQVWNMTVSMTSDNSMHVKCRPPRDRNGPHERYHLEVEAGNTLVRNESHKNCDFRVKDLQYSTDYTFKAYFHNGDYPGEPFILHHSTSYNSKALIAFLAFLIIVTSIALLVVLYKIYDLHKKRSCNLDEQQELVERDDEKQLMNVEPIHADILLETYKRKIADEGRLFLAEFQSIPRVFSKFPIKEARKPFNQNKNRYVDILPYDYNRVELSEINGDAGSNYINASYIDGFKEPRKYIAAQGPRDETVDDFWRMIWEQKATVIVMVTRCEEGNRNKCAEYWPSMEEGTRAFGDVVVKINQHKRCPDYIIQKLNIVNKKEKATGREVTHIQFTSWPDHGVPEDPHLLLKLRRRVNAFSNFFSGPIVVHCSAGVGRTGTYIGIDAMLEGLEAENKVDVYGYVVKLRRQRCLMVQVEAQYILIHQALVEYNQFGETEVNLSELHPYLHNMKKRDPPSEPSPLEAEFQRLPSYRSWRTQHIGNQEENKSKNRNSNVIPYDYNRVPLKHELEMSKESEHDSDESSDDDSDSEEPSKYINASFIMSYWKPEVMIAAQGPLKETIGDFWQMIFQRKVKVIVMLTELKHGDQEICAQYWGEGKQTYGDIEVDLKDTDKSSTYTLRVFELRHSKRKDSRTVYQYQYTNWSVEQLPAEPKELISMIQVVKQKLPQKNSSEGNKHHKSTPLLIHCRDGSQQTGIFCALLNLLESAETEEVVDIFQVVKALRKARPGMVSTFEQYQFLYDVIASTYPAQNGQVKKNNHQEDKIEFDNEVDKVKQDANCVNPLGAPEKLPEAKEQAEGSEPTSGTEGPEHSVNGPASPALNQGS
Conditions: pNPP at Km, pH 7.0, 25° C.

PTPβ, sequence (P23467 23-1997): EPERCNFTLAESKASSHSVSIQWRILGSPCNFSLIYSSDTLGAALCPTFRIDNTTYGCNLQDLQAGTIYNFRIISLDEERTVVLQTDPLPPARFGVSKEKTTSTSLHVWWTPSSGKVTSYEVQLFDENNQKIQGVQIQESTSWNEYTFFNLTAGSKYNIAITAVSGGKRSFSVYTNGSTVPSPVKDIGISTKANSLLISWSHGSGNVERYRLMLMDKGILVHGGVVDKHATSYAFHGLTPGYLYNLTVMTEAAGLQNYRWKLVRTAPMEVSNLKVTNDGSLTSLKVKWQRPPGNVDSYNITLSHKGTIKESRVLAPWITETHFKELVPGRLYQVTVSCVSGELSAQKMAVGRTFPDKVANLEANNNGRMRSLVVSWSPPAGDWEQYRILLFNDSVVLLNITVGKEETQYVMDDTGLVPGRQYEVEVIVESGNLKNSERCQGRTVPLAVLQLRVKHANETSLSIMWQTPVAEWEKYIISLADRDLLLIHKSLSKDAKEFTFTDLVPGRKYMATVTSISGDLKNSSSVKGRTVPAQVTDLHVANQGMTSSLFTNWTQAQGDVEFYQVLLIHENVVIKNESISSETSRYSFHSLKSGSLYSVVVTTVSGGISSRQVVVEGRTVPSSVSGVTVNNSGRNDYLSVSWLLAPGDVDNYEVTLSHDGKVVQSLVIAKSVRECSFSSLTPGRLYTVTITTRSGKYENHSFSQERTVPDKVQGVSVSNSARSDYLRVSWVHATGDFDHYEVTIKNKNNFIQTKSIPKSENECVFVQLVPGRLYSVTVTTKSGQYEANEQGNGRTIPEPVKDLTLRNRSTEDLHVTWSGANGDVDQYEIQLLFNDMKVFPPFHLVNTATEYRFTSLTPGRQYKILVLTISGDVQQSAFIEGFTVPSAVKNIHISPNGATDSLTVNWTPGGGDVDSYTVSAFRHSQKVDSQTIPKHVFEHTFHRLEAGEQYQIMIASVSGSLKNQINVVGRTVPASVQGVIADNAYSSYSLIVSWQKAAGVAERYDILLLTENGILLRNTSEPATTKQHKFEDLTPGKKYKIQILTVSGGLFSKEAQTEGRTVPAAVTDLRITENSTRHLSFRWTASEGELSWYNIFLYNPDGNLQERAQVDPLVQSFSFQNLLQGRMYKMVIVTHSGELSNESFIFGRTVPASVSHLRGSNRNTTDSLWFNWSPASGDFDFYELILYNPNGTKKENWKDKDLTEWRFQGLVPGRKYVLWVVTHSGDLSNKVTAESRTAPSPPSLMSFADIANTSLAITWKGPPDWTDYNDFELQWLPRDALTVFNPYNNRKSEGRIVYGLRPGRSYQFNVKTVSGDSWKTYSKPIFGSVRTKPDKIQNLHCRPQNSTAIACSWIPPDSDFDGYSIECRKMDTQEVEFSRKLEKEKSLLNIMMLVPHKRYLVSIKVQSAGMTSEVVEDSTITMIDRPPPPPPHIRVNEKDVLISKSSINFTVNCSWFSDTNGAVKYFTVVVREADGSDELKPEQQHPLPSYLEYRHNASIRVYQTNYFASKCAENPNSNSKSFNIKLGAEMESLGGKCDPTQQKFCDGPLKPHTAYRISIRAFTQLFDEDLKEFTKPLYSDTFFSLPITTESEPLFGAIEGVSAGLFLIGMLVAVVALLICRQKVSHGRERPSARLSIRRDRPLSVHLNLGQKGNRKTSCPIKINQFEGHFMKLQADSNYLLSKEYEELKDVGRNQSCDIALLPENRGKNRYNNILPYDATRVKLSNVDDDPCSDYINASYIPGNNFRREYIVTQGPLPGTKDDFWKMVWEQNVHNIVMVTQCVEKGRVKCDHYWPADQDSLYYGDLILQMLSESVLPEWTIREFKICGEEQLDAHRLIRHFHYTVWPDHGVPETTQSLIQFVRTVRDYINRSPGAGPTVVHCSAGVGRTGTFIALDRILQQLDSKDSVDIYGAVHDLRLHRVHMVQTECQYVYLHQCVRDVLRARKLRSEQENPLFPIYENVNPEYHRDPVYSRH
LAR, sequence (P10586 30-1907): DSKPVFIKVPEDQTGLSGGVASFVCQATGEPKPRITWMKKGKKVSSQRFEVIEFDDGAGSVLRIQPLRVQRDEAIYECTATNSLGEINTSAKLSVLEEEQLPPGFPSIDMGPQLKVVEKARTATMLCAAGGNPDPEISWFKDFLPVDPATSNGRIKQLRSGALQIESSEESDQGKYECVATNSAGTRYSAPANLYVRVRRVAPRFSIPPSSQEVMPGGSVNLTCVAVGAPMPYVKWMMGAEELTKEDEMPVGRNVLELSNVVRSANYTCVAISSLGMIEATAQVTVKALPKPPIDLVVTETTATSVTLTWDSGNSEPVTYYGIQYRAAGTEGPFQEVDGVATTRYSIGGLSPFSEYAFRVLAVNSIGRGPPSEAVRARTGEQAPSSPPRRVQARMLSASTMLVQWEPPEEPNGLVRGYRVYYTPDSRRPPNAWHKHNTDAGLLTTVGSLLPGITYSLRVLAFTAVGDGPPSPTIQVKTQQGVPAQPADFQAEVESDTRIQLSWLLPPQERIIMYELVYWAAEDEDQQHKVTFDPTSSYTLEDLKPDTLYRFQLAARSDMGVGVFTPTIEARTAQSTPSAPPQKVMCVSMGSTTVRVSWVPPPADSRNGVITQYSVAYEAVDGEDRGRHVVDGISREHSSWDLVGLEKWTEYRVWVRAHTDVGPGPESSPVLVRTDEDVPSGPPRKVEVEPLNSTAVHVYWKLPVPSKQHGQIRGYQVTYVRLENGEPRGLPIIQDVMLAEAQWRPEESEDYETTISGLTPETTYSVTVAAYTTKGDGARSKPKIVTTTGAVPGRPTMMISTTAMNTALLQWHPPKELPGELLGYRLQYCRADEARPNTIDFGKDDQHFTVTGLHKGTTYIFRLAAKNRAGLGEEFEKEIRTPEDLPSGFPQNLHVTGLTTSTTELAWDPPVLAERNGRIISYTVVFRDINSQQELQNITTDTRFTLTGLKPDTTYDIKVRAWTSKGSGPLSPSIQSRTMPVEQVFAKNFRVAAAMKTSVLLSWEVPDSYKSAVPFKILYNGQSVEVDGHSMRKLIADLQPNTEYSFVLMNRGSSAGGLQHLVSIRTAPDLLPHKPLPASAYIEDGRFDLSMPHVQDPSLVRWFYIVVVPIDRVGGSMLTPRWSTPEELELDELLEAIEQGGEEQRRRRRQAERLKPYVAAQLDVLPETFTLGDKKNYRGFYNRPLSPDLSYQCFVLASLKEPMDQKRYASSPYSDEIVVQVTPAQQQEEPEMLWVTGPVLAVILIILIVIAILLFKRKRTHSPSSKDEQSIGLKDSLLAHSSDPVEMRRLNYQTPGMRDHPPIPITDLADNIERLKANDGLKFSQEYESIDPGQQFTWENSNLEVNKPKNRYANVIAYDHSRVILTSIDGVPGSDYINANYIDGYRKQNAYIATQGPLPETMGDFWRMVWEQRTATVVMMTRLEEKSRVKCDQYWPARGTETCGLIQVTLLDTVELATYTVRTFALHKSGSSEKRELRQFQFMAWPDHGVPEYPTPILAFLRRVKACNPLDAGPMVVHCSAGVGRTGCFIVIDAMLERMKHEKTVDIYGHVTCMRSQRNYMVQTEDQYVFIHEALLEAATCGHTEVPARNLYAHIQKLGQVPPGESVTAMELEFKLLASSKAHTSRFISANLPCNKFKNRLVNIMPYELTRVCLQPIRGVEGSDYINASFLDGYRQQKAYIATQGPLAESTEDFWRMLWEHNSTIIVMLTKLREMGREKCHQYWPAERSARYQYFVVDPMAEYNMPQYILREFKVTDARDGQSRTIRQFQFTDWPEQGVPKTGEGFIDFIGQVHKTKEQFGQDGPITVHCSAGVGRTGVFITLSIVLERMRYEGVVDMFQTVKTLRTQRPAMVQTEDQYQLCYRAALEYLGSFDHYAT

In general, IC50 refers to the midpoint of a concentration-inhibition curve. A lower IC50 goes with inhibition by little substance. Consider `O=C(CS(=O)(=O)O)Nc1nc2ccc([N+](=O)[O-])cc2s1` [Compound L335N15-07], for which the 50% inhibitory concentration (IC50) against LMWPTP was 0.3 µM; at PTP1B it was > 100 µM; at LYP, > 100 µM; on CD45, > 100 µM; on LAR it was > 100 µM; on PTPβ, > 100 µM. The IC50 against PTPγ was > 100 µM.

Consider `O=C(CS(=O)(=O)O)Nc1nc2ccccc2s1` [Compound L335N15], for which the IC50 at LMWPTP is 2.1 µM; on PTP1B it was > 100 µM; against LYP it was > 100 µM; against CD45 it was > 100 µM; against LAR, > 100 µM; against PTPβ, > 100 µM. Besides, on PTPγ, the IC50 is > 100 µM.
